{
  "source": "patent US7504035B2",
  "about": "“Treatment of putrescrible cakes” (United Utilities PLC, priority 2005, dated 2009)",
  "assay_type_in_all_cases": "cell-based",
  "key": {"E. coli [1]": {"test_system": "E. coli", "assay": "E. coli content of digested sludge cake (24.8% solids) treated with urea", "settings": "digested sewage sludge 24.8% solids", "experimental": "Samples of digested sludge cake with mean solids content of 24.8% were treated with various amounts of urea. The E. coli content (cfu/g dry weight) of the samples was monitored over a period."}, "E. coli [2]": {"test_system": "E. coli", "assay": "E. coli content of raw sewage sludge cake (25.6% DS) treated with urea", "settings": "raw sewage sludge 25.6% DS", "experimental": "Samples of raw sewage sludge cake with mean solids content of 25.6% were treated with various amounts of urea. The E. coli content (cfu/g dry weight) of the samples was monitored over a period."}, "pathogens in the cake": {"test_system": "pathogens in the cake", "assay": "Pathogen deactivation in sewage sludge cake (general statement)", "settings": "low concentration added to sewage sludge cake, particularly septic cake"}},
  "data": [
    {"smiles": "NC(N)=O", "note": "[urea]", "values": [
      {"measurement": "E. coli content", "setting": "E. coli [1]; 0.5% dose urea, day 0", "value": "4.67E+04", "unit": "cfu/g dry weight"},
      {"measurement": "E. coli content", "setting": "E. coli [1]; 0.5% dose urea, day 1", "value": "1.86E+03", "unit": "cfu/g dry weight"},
      {"measurement": "E. coli content", "setting": "E. coli [1]; 0.5% dose urea, day 4", "value": "1.21E+02", "unit": "cfu/g dry weight"},
      {"measurement": "E. coli content", "setting": "E. coli [1]; 0.5% dose urea, day 7", "value": "1.94E+02", "unit": "cfu/g dry weight"},
      {"measurement": "E. coli content", "setting": "E. coli [1]; 0.5% dose urea, day 14", "value": "3.90E+01", "unit": "cfu/g dry weight"},
      {"measurement": "E. coli content", "setting": "E. coli [1]; 0.5% dose urea, day 50", "value": "5.40E+01", "unit": "cfu/g dry weight"},
      {"measurement": "E. coli content", "setting": "E. coli [1]; 1.0% dose urea, day 0", "value": "1.79E+04", "unit": "cfu/g dry weight"},
      {"measurement": "E. coli content", "setting": "E. coli [1]; 1.0% dose urea, day 1", "value": "6.97E+03", "unit": "cfu/g dry weight"},
      {"measurement": "E. coli content", "setting": "E. coli [1]; 1.0% dose urea, day 4", "value": "7.90E+01", "unit": "cfu/g dry weight"},
      {"measurement": "E. coli content", "setting": "E. coli [1]; 1.0% dose urea, day 7", "value": "7.90E+01", "unit": "cfu/g dry weight"},
      {"measurement": "E. coli content", "setting": "E. coli [1]; 1.0% dose urea, day 14", "value": "1.34E+02", "unit": "cfu/g dry weight"},
      {"measurement": "E. coli content", "setting": "E. coli [1]; 1.0% dose urea, day 50", "value": "1.85E+02", "unit": "cfu/g dry weight"},
      {"measurement": "E. coli content", "setting": "E. coli [1]; 1.5% dose urea, day 0", "value": "1.19E+04", "unit": "cfu/g dry weight"},
      {"measurement": "E. coli content", "setting": "E. coli [1]; 1.5% dose urea, day 1", "value": "4.57E+03", "unit": "cfu/g dry weight"},
      {"measurement": "E. coli content", "setting": "E. coli [1]; 1.5% dose urea, day 4", "value": "3.70E+01", "unit": "cfu/g dry weight"},
      {"measurement": "E. coli content", "setting": "E. coli [1]; 1.5% dose urea, day 7", "value": "1.54E+02", "unit": "cfu/g dry weight"},
      {"measurement": "E. coli content", "setting": "E. coli [1]; 1.5% dose urea, day 14", "value": "7.90E+01", "unit": "cfu/g dry weight"},
      {"measurement": "E. coli content", "setting": "E. coli [1]; 1.5% dose urea, day 50", "value": "4.10E+01", "unit": "cfu/g dry weight"},
      {"measurement": "E. coli content", "setting": "E. coli [2]; 0.5% dose urea, day 0", "value": "1.36E+06", "unit": "cfu/g dry weight"},
      {"measurement": "E. coli content", "setting": "E. coli [2]; 0.5% dose urea, day 1", "value": "7.58E+06", "unit": "cfu/g dry weight"},
      {"measurement": "E. coli content", "setting": "E. coli [2]; 0.5% dose urea, day 8", "value": "1.32E+05", "unit": "cfu/g dry weight"},
      {"measurement": "E. coli content", "setting": "E. coli [2]; 0.5% dose urea, day 14", "value": "1.18E+05", "unit": "cfu/g dry weight"},
      {"measurement": "E. coli content", "setting": "E. coli [2]; 0.5% dose urea, day 22", "value": "4.55E+04", "unit": "cfu/g dry weight"},
      {"measurement": "E. coli content", "setting": "E. coli [2]; 1.0% dose urea, day 0", "value": "1.39E+06", "unit": "cfu/g dry weight"},
      {"measurement": "E. coli content", "setting": "E. coli [2]; 1.0% dose urea, day 1", "value": "6.15E+06", "unit": "cfu/g dry weight"},
      {"measurement": "E. coli content", "setting": "E. coli [2]; 1.0% dose urea, day 8", "value": "3.25E+03", "unit": "cfu/g dry weight"},
      {"measurement": "E. coli content", "setting": "E. coli [2]; 1.0% dose urea, day 14", "value": "9.58E+02", "unit": "cfu/g dry weight"},
      {"measurement": "E. coli content", "setting": "E. coli [2]; 1.0% dose urea, day 22", "value": "3.35E+02", "unit": "cfu/g dry weight"},
      {"measurement": "E. coli content", "setting": "E. coli [2]; 1.5% dose urea, day 0", "value": "1.23E+06", "unit": "cfu/g dry weight"},
      {"measurement": "E. coli content", "setting": "E. coli [2]; 1.5% dose urea, day 1", "value": "1.30E+03", "unit": "cfu/g dry weight"},
      {"measurement": "E. coli content", "setting": "E. coli [2]; 1.5% dose urea, day 8", "value": "9.03E+02", "unit": "cfu/g dry weight"},
      {"measurement": "E. coli content", "setting": "E. coli [2]; 1.5% dose urea, day 14", "value": "2.09E+02", "unit": "cfu/g dry weight"},
      {"measurement": "E. coli content", "setting": "E. coli [2]; 1.5% dose urea, day 22", "value": "1.00E+01", "unit": "cfu/g dry weight"},
      {"measurement": "Pathogens in the cake", "setting": "pathogens in the cake", "value": "quickly become deactivated"}
    ]}
  ]
}
